US7015228B2, “4-amino-2-(2-pyridyl)pyrimidines as microbicidal active substances” (Ciba Specialty Chemicals Corporation, priority 2001, dated 2006)
≈ marks a conversion by molar mass, not a printed value.

Columns and labels:
Assay type in all cases: cell-based
[1] = tested on: S. epidermidis ATCC 12228; experiment: Minimum inhibitory concentration (MIC), further microorganisms; conditions: Table 8; * = significant inhibition of growth, but not complete inhibition
Summary of the method: (§1)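 Broth microdilution in DMSO, 1:2 series; inocula adjusted to 1–5×10^6 CFU/ml then diluted 1:100 in CASO broth (bacteria, yeast) or Sabouraud 2% glucose broth (mould). Incubation 48 h at 37° C or 5 days at 28° C; MIC = lowest concentration giving ≦20% growth versus control by OD 620 nm.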

[2] = tested on: Trichophyton mentagrophytes ATCC 9533; experiment: as above; conditions: Table 8; * = significant inhibition of growth, but not complete inhibition
Summary of the method: as §1

[3] = tested on: Klebsiella pneumonia ATCC 4352; experiment: as above; conditions: Table 8; * = significant inhibition of growth, but not complete inhibition
Summary of the method: as §1

[4] = tested on: Staphylococcus aureus ATCC 9144; experiment: as above; conditions: Table 8; * = significant inhibition of growth, but not complete inhibition
Summary of the method: as §1

[5] = tested on: Micrococcus luteus ATCC 9341; experiment: as above; conditions: Table 8; * = significant inhibition of growth, but not complete inhibition
Summary of the method: as §1

[6] = tested on: Pseudomonas aeruginosa CIP A-22; experiment: as above; conditions: Table 8
Summary of the method: as §1

[7] = tested on: Epidermophyton floccosum DSM 10709; experiment: as above; conditions: Table 8; * = significant inhibition of growth, but not complete inhibition
Summary of the method: as §1

[8] = tested on: Aspergillus niger ATCC 6275; experiment: as above; conditions: Table 8; * = significant inhibition of growth, but not complete inhibition
Summary of the method: as §1

[9] = tested on: Salmonella choleraesuis ATCC 10708; experiment: as above; conditions: Table 8
Summary of the method: as §1

[10] = tested on: Enterococcus hirae ATCC 10541; experiment: as above; conditions: Table 8; * = significant inhibition of growth, but not complete inhibition
Summary of the method: as §1

[11] = tested on: Candida albicans ATCC 10231; experiment: as above; conditions: Table 8; * = significant inhibition of growth, but not complete inhibition
Summary of the method: as §1

[12] = tested on: Staphylococcus hominis DMS 20328; experiment: Minimum inhibitory concentration (MIC) in microtitre plates; conditions: Table 7; 48 hours at 37° C.; MIC = ≦20% growth compared to control
Summary of the method: (§2)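 Compounds in DMSO, 1:2 dilution series; bacteria at 1–5×10^6 CFU/ml diluted 1:100 in CASO broth. Incubation 48 h at 37° C, growth read as OD 620 nm. MIC is the lowest concentration giving ≤20% growth relative to control; duplicates.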

[13] = tested on: Escherichia coli NCTC 8196; experiment: as above; conditions: for Minimum inhibitory concentration (MIC) E. coli: Table 7, 48 hours at 37° C., MIC = ≦20% growth compared to control; for Minimum inhibitory concentration (MIC) E. coli NCTC 8196: Table 8, * = significant inhibition of growth, but not complete inhibition
Summary of the method: as §2

Minimum inhibitory concentration (MIC) S. epidermidis ATCC 12228 [1]	Minimum inhibitory concentration (MIC) Trichophyton mentagrophytes ATCC 9533 [2]	Minimum inhibitory concentration (MIC) Klebsiella pneumonia ATCC 4352 [3] [µg/mL]	Minimum inhibitory concentration (MIC) Staphylococcus aureus ATCC 9144 [4]	Minimum inhibitory concentration (MIC) Micrococcus luteus ATCC 9341 [5]	Minimum inhibitory concentration (MIC) Pseudomonas aeruginosa CIP A-22 [6] [µg/mL]	Minimum inhibitory concentration (MIC) Epidermophyton floccosum DSM 10709 [7]	Minimum inhibitory concentration (MIC) Aspergillus niger ATCC 6275 [8]	Minimum inhibitory concentration (MIC) Enterococcus hirae ATCC 10541 [10] [µg/mL]	Minimum inhibitory concentration (MIC) Candida albicans ATCC 10231 [11]	Minimum inhibitory concentration (MIC) S. hominis [12] [µg/mL]	Minimum inhibitory concentration (MIC) E. coli [13] [µg/mL]	Minimum inhibitory concentration (MIC) E. coli NCTC 8196 [13] [µg/mL]	Compound	Minimum inhibitory concentration (MIC) Salmonella choleraesuis ATCC 10708 [9] [µg/mL]
*7.5 μg/mL	60 µg/mL (≈ 157 µM)	>60	15 µg/mL (≈ 39.2 µM)	<3.75 µg/mL	>60	*30 μg/mL	>60 µg/mL	7.5 (≈ 19.6 µM)	*60 μg/mL	7.5 (≈ 19.6 µM)	120 (≈ 314 µM)	>60	CCCCCCCCCCCCNc1nc(-c2ccccn2)nc(C)c1CC [compound 12]	>60
>60 µg/mL	>60 µg/mL	>60	>60 µg/mL	>60 µg/mL	>60	>60 µg/mL	>60 µg/mL	>60	>60 µg/mL	30 (≈ 84.4 µM)	120 (≈ 338 µM)	>60	Cc1nc(-c2ccccn2)nc(NCCCCCCCCN)c1C(C)C [compound 65]	>60
*60 μg/mL	>60 µg/mL	>60	*60 μg/mL	>60 µg/mL	>60	>60 µg/mL	>60 µg/mL	>60	>60 µg/mL	15 (≈ 40.4 µM)	60 (≈ 161 µM)	>60	COCCc1cc(NCCCCCCCCCN)nc(-c2ccccn2)n1 [compound 78]	>60
<3.75 µg/mL	*60 μg/mL	>60	<3.75 µg/mL	<3.75 µg/mL	>60	*60 μg/mL	>60 µg/mL	<3.75	*15 μg/mL	3.75 (≈ 9.8 µM)	120 (≈ 314 µM)	>60	CCCCCCCCCCCCNc1cc(C(C)C)nc(-c2ccccn2)n1 [compound 48]	>60
*1.9 μg/mL	15 µg/mL (≈ 44.1 µM)	120 (≈ 352 µM)	3.75 µg/mL (≈ 11 µM)	<0.5 µg/mL	>120	15 µg/mL (≈ 44.1 µM)	*60 μg/mL	3.75 (≈ 11 µM)	15 µg/mL (≈ 44.1 µM)	3.75 (≈ 11 µM)	>120	>120	CCCCCCCCCCCNc1cc(C)nc(-c2ccccn2)n1 [compound 92]	>120
1.9 µg/mL (≈ 5.16 µM)	>60 µg/mL	120 (≈ 326 µM)	1.9 µg/mL (≈ 5.16 µM)	<0.5 µg/mL	>120	15 µg/mL (≈ 40.7 µM)	>60 µg/mL	1.9 (≈ 5.16 µM)	30 µg/mL (≈ 81.4 µM)	3.75 (≈ 10.2 µM)	>120	120 (≈ 326 µM)	CCCCCCCCCCCNc1cc(C(C)C)nc(-c2ccccn2)n1 [compound 98]	>120
*7.5 μg/mL	>60 µg/mL	>60	15 µg/mL (≈ 37.8 µM)	<3.75 µg/mL	>60	>60 µg/mL	60 µg/mL (≈ 151 µM)	7.5 (≈ 18.9 µM)	>60 µg/mL	3.75 (≈ 9.45 µM)	120 (≈ 303 µM)	>60	CCCCCCCCCCCCNc1cc(C(C)(C)C)nc(-c2ccccn2)n1 [compound 60]	>60
60 µg/mL (≈ 162 µM)	>60 µg/mL	>60	60 µg/mL (≈ 162 µM)	*30 μg/mL	>60	>60 µg/mL	>60 µg/mL	>60	>60 µg/mL	3.75 (≈ 10.1 µM)	30 (≈ 81.2 µM)	>60	Cc1nc(-c2ccccn2)nc(NCCCCCCCCCN)c1C(C)C [compound 66]	>60
7.5 µg/mL (≈ 20.3 µM)	*7.5 μg/mL	60 (≈ 163 µM)	7.5 µg/mL (≈ 20.3 µM)	1.9 µg/mL (≈ 5.16 µM)	>60	15 µg/mL (≈ 40.7 µM)	30 µg/mL (≈ 81.4 µM)	7.5 (≈ 20.3 µM)	15 µg/mL (≈ 40.7 µM)	3.75 (≈ 10.2 µM)	>120	>60	CCCCCCCCCCCNc1nc(-c2ccccn2)nc(C)c1CC [compound 89]	>60
7.5 µg/mL (≈ 18.9 µM)	>60 µg/mL	>120	15 µg/mL (≈ 37.8 µM)	1.9 µg/mL (≈ 4.79 µM)	>120	>60 µg/mL	>60 µg/mL	15 (≈ 37.8 µM)	*120 μg/mL	7.5 (≈ 18.9 µM)	>120	>120	CCCCCCCCCCCCCCCNc1cc(C)nc(-c2ccccn2)n1 [compound 93]	>120
